According to article PMC10434283, “A Novel Two-Component Bacteriocin, Acidicin P, and Its Key Residues for Inhibiting Listeria monocytogenes by Targeting the Cell Membrane” (Microbiology Spectrum, 2023):

Tests used:
[1] = test system: L. monocytogenes; assay: Agar well diffusion assay of the mutations; type: cell-based, Listeria monocytogenes; details: BHI agar, 10^5 CFU/mL, 40 μL peptide per well, 24 h at 30°C
Description: (§1) The antimicrobial spectrum was investigated using the indicator strains Streptococcus agalactiae 10465, Listeria monocytogenes 1.10753, enterotoxigenic Escherichia coli K88, vancomycin-resistant Enterococcus faecalis V583, Salmonella enterica serovar Typhimurium 14028, methicillin-resistant Staphylococcus aureus, and Bacillus cereus 1.1846. L. monocytogenes 1.10753 was used for growth curve measurement with a microtiter plate assay system. The indicator (at 1 × 10^5 CFU/mL) and the peptide (at 2-fold dilutions) were added to a final volume of 200 μL in each well. The bacterial growth was monitored with Bioscreen C (OyGrowth Curves Ab Ltd.) at 600 nm at 30°C. The MIC was defined as the total amount of Adpα, Adpβ, and acidicin P (the complementary peptides combined with equal amounts) that inhibited the growth of the indicator strain. The agar well diffusion method was used to investigate the antimicrobial activity of the mutations. The L. monocytogenes was inoculated in a brain heart infusion (BHI) agar plate as an indicator at a concentration of 10^5 CFU/mL. The peptide mutants (40 μL) were added to the wells (5 mm), and the plates were incubated for 24 h at 30°C.

[2] = test system: Listeria monocytogenes 1.10753; assay: MIC by microtiter plate growth curve assay; type: cell-based; details: for growth rate of L. monocytogenes: peptide individually, at any concentration; for MIC: microtiter growth curve, 1 × 10^5 CFU/mL, 30°C, 600 nm
Description: as §1

[3] = test system: L. monocytogenes cell membrane; assay: Cytoplasmic membrane permeability assay with propidium iodide; type: cell-based, Listeria monocytogenes; details: positive control, 1× MIC
Experimental: Pretreatment of L. monocytogenes cells for the cytoplasmic membrane permeability assay was similar to that for the PMF assay. The cells were resuspended in 1 mL PBS and treated with different concentrations of acidicin P at 30°C for 30 min. The treated cells were stained with 10 μg/mL propidium iodide (PI, Bioss) in the dark for 15 min. Emission spectra of the mixture were recorded at 615 nm upon excitation at 535 nm with a Synergy H4 device (BioTek).

| Substance | antimicrobial activity compared to the wild type [1] | further results |
| --- | --- | --- |
| ANKMAYNVGKAISRIMRRVR [R1A (Adpα)-D12A (Adpβ), acidicin P mutant pair] | no detrimental effect |  |
| KKKRGFWYHVGDAVTSFGRGFASAFG [Adpβ, 26-residue mature β peptide of the two-component bacteriocin acidicin P, obtained by solid-phase peptide synthesis] |  | growth rate of L. monocytogenes [2]: not affected; MIC ([2]; ratio α:β 0:1 (Adpβ alone)): / (No antimicrobial activity observed in the range of 1.56 to 200 μg/mL acidicin P) |
| RNKMAYAVGKAISAIMRRVR [N7A//R14A (Adpα)-D12A//S16A//R19A (Adpβ), acidicin P mutant pair: Adpα N7A, R14A with Adpβ D12A, S16A, R19A] | significantly decreased |  |
| RNKMAYAVGKAISRIMRRVR [N7A (Adpα)-S16A//R19A (Adpβ), acidicin P mutant pair: Adpα N7A with Adpβ S16A, R19A] | significantly decreased |  |
| RNKMAYNVGKAISAIMRRVR [R14A (Adpα)-D12A (Adpβ), acidicin P mutant pair: Adpα R14A with Adpβ D12A] | significantly decreased |  |
| RNKMAYNVGKAISRIMRAVR [R18A (Adpα)-K2A (Adpβ), acidicin P mutant pair: Adpα R18A with Adpβ K2A] | no detrimental effect |  |
| RNKMAYNVGKAISRIMRRVR [Adpα, 20-residue mature α peptide of the two-component bacteriocin acidicin P, obtained by solid-phase peptide synthesis] |  | growth rate of L. monocytogenes [2]: not affected; MIC ([2]; ratio α:β 1:0 (Adpα alone)): / (No antimicrobial activity observed in the range of 1.56 to 200 μg/mL acidicin P) |
| RNKMIYNVIKAISRIMRRVR [A5I//G9I (Adpα)-S16I//G20I (Adpβ), acidicin P mutant pair: Adpα A5I, G9I with Adpβ S16I, G20I] | significantly decreased | bactericidal zone [1]: no bactericidal zone was observed |
| nisin |  | PI fluorescence versus untreated cells [3]: higher fluorescence |
